#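 These data come from cells grown in 96-well plates and exposed to compound for 48 hours at five concentrations. TGI: total growth inhibition.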
# Tests used:
# Assay in all cases: NCI anticancer screen, dose series, 48 h
# UACC-62 melanoma = test system: UACC-62 melanoma
# RXF 393 renal = test system: RXF 393 renal
# LOX IMVI melanoma = test system: LOX IMVI melanoma
# M14 melanoma = test system: M14 melanoma
# SN12C renal = test system: SN12C renal
# RPMI-8226 leukemia = test system: RPMI-8226 leukemia
# 786-0 renal = test system: 786-0 renal
# EKVX NSCLC = test system: EKVX NSCLC
# CAKI-1 renal = test system: CAKI-1 renal
# HCT-15 colon = test system: HCT-15 colon
# HS 578T breast = test system: HS 578T breast
# MOLT-4 leukemia = test system: MOLT-4 leukemia
# SW-620 colon = test system: SW-620 colon
# CCRF-CEM leukemia = test system: CCRF-CEM leukemia
# DU-145 prostate = test system: DU-145 prostate
# MCF7 breast = test system: MCF7 breast
# OVCAR-4 ovarian = test system: OVCAR-4 ovarian
# K-562 leukemia = test system: K-562 leukemia
# OVCAR-5 ovarian = test system: OVCAR-5 ovarian
# IGROV1 ovarian = test system: IGROV1 ovarian
# HOP-92 NSCLC = test system: HOP-92 NSCLC
# NCI/ADR-RES ovarian = test system: NCI/ADR-RES ovarian
# T-47D breast = test system: T-47D breast
# SNB-19 CNS = test system: SNB-19 CNS
# SF-295 CNS = test system: SF-295 CNS
# SF-268 CNS = test system: SF-268 CNS
# BT-549 breast = test system: BT-549 breast
# OVCAR-3 ovarian = test system: OVCAR-3 ovarian
# HOP-62 NSCLC = test system: HOP-62 NSCLC
# SK-OV-3 ovarian = test system: SK-OV-3 ovarian
# UO-31 renal = test system: UO-31 renal
# SR leukemia = test system: SR leukemia
# A549 NSCLC = test system: A549 NSCLC
# ACHN renal = test system: ACHN renal
# SNB-75 CNS = test system: SNB-75 CNS
# HT29 colon = test system: HT29 colon
# MALME-3M melanoma = test system: MALME-3M melanoma
# HL-60(TB) leukemia = test system: HL-60(TB) leukemia
# HCT-116 colon = test system: HCT-116 colon
# OVCAR-8 ovarian = test system: OVCAR-8 ovarian
# MDA-MB-435 = test system: MDA-MB-435
# NCI-H23 lung = test system: NCI-H23 lung
# MDA-N = test system: MDA-N
# SF-539 CNS = test system: SF-539 CNS
# KM12 colon = test system: KM12 colon
# SK-MEL-28 melanoma = test system: SK-MEL-28 melanoma
# NCI-H522 lung = test system: NCI-H522 lung
# NCI-H460 lung = test system: NCI-H460 lung
# SK-MEL-2 melanoma = test system: SK-MEL-2 melanoma
# MDA-MB-231 breast = test system: MDA-MB-231 breast
# PC-3 prostate = test system: PC-3 prostate
# SK-MEL-5 melanoma = test system: SK-MEL-5 melanoma
# TK-10 renal = test system: TK-10 renal
# U251 CNS = test system: U251 CNS
# HCC-2998 colon = test system: HCC-2998 colon
# COLO 205 colon = test system: COLO 205 colon
# UACC-257 melanoma = test system: UACC-257 melanoma
# NCI-H226 lung = test system: NCI-H226 lung
# A498 renal = test system: A498 renal
smiles,measurement,setting,value
Cc1cnoc1NS(=O)(=O)c1ccc(Nc2nnc(/C=C/c3c(O)ccc4ccccc34)c(=O)n2N)cc1,TGI,UACC-62 melanoma,52.5 µM
same,TGI,RXF 393 renal,80.2 µM
same,TGI,LOX IMVI melanoma,53.9 µM
same,TGI,M14 melanoma,75.7 µM
same,TGI,SN12C renal,95.3 µM
same,TGI,RPMI-8226 leukemia,71.6 µM
same,TGI,786-0 renal,77.1 µM
same,TGI,EKVX NSCLC,71.9 µM
same,TGI,CAKI-1 renal,88.9 µM
same,TGI,HCT-15 colon,61.5 µM
same,TGI,HS 578T breast,> 100 µM
same,TGI,MOLT-4 leukemia,> 100 µM
same,TGI,SW-620 colon,> 100 µM
same,TGI,CCRF-CEM leukemia,> 100 µM
same,TGI,DU-145 prostate,> 100 µM
same,TGI,MCF7 breast,47.5 µM
same,TGI,OVCAR-4 ovarian,> 100 µM
same,TGI,K-562 leukemia,82.9 µM
same,TGI,OVCAR-5 ovarian,77.9 µM
same,TGI,IGROV1 ovarian,> 100 µM
same,TGI,HOP-92 NSCLC,> 100 µM
same,TGI,NCI/ADR-RES ovarian,66.9 µM
same,TGI,T-47D breast,82 µM
same,TGI,SNB-19 CNS,> 100 µM
same,TGI,SF-295 CNS,> 100 µM
same,TGI,SF-268 CNS,> 100 µM
same,TGI,BT-549 breast,53.9 µM
same,TGI,OVCAR-3 ovarian,60.1 µM
same,TGI,HOP-62 NSCLC,> 100 µM
same,TGI,SK-OV-3 ovarian,> 100 µM
same,TGI,UO-31 renal,> 100 µM
same,TGI,SR leukemia,55.6 µM
same,TGI,A549 NSCLC,> 100 µM
same,TGI,ACHN renal,55.1 µM
same,TGI,SNB-75 CNS,77 µM
same,TGI,HT29 colon,> 100 µM
same,TGI,MALME-3M melanoma,65.5 µM
same,TGI,HL-60(TB) leukemia,22.4 µM
same,TGI,HCT-116 colon,55.9 µM
same,TGI,OVCAR-8 ovarian,> 100 µM
same,TGI,MDA-MB-435,76.3 µM
same,TGI,NCI-H23 lung,32 µM
same,TGI,MDA-N,82.2 µM
COC(=O)C1=C(O)CCCC(CCC(C)=O)=C1,TGI,UACC-62 melanoma,> 100 µM
same,TGI,RXF 393 renal,> 100 µM
same,TGI,LOX IMVI melanoma,> 100 µM
same,TGI,SF-539 CNS,61.1 µM
same,TGI,M14 melanoma,> 100 µM
same,TGI,SN12C renal,> 100 µM
same,TGI,RPMI-8226 leukemia,> 100 µM
same,TGI,786-0 renal,77.3 µM
same,TGI,EKVX NSCLC,> 100 µM
same,TGI,CAKI-1 renal,> 100 µM
same,TGI,HCT-15 colon,> 100 µM
same,TGI,HS 578T breast,> 100 µM
same,TGI,MOLT-4 leukemia,> 100 µM
same,TGI,SW-620 colon,> 100 µM
same,TGI,CCRF-CEM leukemia,25.2 µM
same,TGI,KM12 colon,> 100 µM
same,TGI,SK-MEL-28 melanoma,> 100 µM
same,TGI,DU-145 prostate,> 100 µM
same,TGI,OVCAR-4 ovarian,> 100 µM
same,TGI,K-562 leukemia,> 100 µM
same,TGI,NCI-H522 lung,31.1 µM
same,TGI,OVCAR-5 ovarian,> 100 µM
same,TGI,IGROV1 ovarian,> 100 µM
same,TGI,HOP-92 NSCLC,95.7 µM
same,TGI,NCI/ADR-RES ovarian,> 100 µM
same,TGI,NCI-H460 lung,> 100 µM
same,TGI,T-47D breast,> 100 µM
same,TGI,SNB-19 CNS,> 100 µM
same,TGI,SK-MEL-2 melanoma,> 100 µM
same,TGI,SF-295 CNS,> 100 µM
same,TGI,MDA-MB-231 breast,> 100 µM
same,TGI,SF-268 CNS,> 100 µM
same,TGI,BT-549 breast,> 100 µM
same,TGI,OVCAR-3 ovarian,> 100 µM
same,TGI,PC-3 prostate,> 100 µM
same,TGI,SK-MEL-5 melanoma,> 100 µM
same,TGI,TK-10 renal,> 100 µM
same,TGI,SK-OV-3 ovarian,> 100 µM
same,TGI,UO-31 renal,> 100 µM
same,TGI,SR leukemia,66 µM
same,TGI,A549 NSCLC,> 100 µM
same,TGI,ACHN renal,> 100 µM
same,TGI,SNB-75 CNS,> 100 µM
same,TGI,U251 CNS,> 100 µM
same,TGI,HT29 colon,> 100 µM
same,TGI,MALME-3M melanoma,> 100 µM
same,TGI,HCC-2998 colon,> 100 µM
same,TGI,HL-60(TB) leukemia,43.8 µM
same,TGI,COLO 205 colon,55.2 µM
same,TGI,HCT-116 colon,36.1 µM
same,TGI,OVCAR-8 ovarian,> 100 µM
same,TGI,MDA-MB-435,> 100 µM
same,TGI,UACC-257 melanoma,> 100 µM
same,TGI,NCI-H23 lung,> 100 µM
same,TGI,NCI-H226 lung,> 100 µM
same,TGI,MDA-N,> 100 µM
same,TGI,A498 renal,> 100 µM

# — PubChem BioAssay (NCI)
